Results taken from patent publication US11840686B2, “Modulation of prekallikrein (PKK) expression” (Ionis Pharmaceuticals, Inc., priority 2013, dated 2023).
Strand notation (5' to 3'): a small letter for the sugar, then the base; units joined by * are phosphorothioate-linked, units joined directly phosphodiester-linked; [ ] holds rarer units or linkages, { } end groups; capitals alone tell only the bases. e = 2'-O-(2-methoxyethyl) (MOE); [5mC] = 5-methylcytosine; d = 2'-deoxy (DNA)

The substances below were run on human PKK mRNA (assay: Antisense inhibition of human PKK mRNA in HepaRG cells, 5,000 nM (Example 2)). Conditions: HepaRG cells, 5,000 nM antisense oligonucleotide; 5-10-5 gapmers; Table 16.
Type: cell-based
How it was run: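 Percent inhibition of PKK mRNA is relative to untreated control, with qRT-PCR (probe set RTS3454) values adjusted to total RNA by RIBOGREEN. Oligonucleotides, fully phosphorothioate 2′-MOE gapmers, were delivered at 5,000 nM by electroporation into 20,000 HepaRG cells/well for about 24 h.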

Substance | % inhibition
546990 (eA*eG*eA*eA*e[5mC]*dA*dG*dG*dA*dG*dA*d[5mC]*dA*dA*dT*e[5mC]*e[5mC]*eA*e[5mC]*eT; antisense) [compound 546990] | 49%
547713 (antisense e[5mC]*eT*e[5mC]*eA*eA*dT*dG*d[5mC]*d[5mC]*dA*d[5mC]*d[5mC]*d[5mC]*dT*dT*eT*e[5mC]*e[5mC]*e[5mC]*e[5mC]) [compound 547713] | 37%
547714 (antisense e[5mC]*eT*eG*eT*e[5mC]*dT*dA*dA*d[5mC]*dT*dG*dG*d[5mC]*d[5mC]*dT*eG*eG*e[5mC]*eT*eG) [compound 547714] | 19%

Same assay, conditions: HepaRG cells, 5,000 nM antisense oligonucleotide; 5-10-5 gapmers; Table 17

Substance | % inhibition
547022 (eA*eT*eT*eG*eG*dT*dG*dG*d[5mC]*dG*dG*dG*dA*dT*d[5mC]*eG*eG*eT*eG*eG; antisense) [compound 547022] | 69%
547021 (eT*eT*eG*eG*eT*dG*dG*d[5mC]*dG*dG*dG*dA*dT*d[5mC]*dG*eG*eT*eG*eG*eT; antisense) [compound 547021] | 57%
547017 (eG*eG*eT*eA*eG*dG*dT*dG*dG*dT*dG*dG*dG*dA*dT*eT*eG*eG*eT*eG; antisense) [compound 547017] | 61%
547029 (eT*e[5mC]*eT*eT*e[5mC]*dT*dA*dG*dG*dG*d[5mC]*d[5mC]*dA*d[5mC]*dA*e[5mC]*e[5mC]*eT*e[5mC]*eT; antisense) [compound 547029] | 50%
547782 (antisense e[5mC]*e[5mC]*eA*eA*eG*dT*dA*dT*d[5mC]*dT*d[5mC]*dA*dT*dG*dT*eG*e[5mC]*e[5mC]*eT*eG) [compound 547782] | 67%

Same assay, conditions: HepaRG cells, electroporation with 5,000 nM antisense oligonucleotide, approximately 24 hours, PKK mRNA by RT-PCR (RTS3454), relative to untreated control cells; Table 5 experiment

Substance | % inhibition
547297 (antisense eT*eG*eG*eA*eA*dT*dG*dT*dG*d[5mC]*dA*d[5mC]*d[5mC]*dT*d[5mC]*eA*eT*e[5mC]*eT*eG) [compound 547297] | 84%

Same assay, conditions: HepaRG cells, electroporation with 5,000 nM antisense oligonucleotide, approximately 24 hours, PKK mRNA by RT-PCR (RTS3454), relative to untreated control cells; Table 6 experiment

Substance | % inhibition
546175 (antisense e[5mC]*eT*eG*e[5mC]*eA*d[5mC]*d[5mC]*dT*dG*dT*dT*d[5mC]*dG*dA*dT*eG*eT*eA*e[5mC]*eT) [compound 546175] | 78%
546196 (antisense e[5mC]*eA*e[5mC]*eT*eG*d[5mC]*dT*dA*dA*d[5mC]*d[5mC]*dT*dT*dA*dG*eA*e[5mC]*eA*e[5mC]*eA) [compound 546196] | 83%
547363 (eG*eG*e[5mC]*eA*eA*d[5mC]*dA*dT*d[5mC]*d[5mC]*dA*d[5mC]*dA*dT*d[5mC]*eT*eG*eA*eG*eA; antisense) [compound 547363] | 84%

Same assay, conditions: HepaRG cells, electroporation, 5,000 nM antisense oligonucleotide, approx. 24 hours, primer probe set RTS3454, relative to untreated control cells; Table 11

Substance | % inhibition
547510 (antisense eA*eT*eG*eA*eG*dG*dA*d[5mC]*d[5mC]*d[5mC]*d[5mC]*d[5mC]*d[5mC]*dA*dG*eG*e[5mC]*eT*e[5mC]*eA) [compound 547510] | 40%
546380 (antisense eG*e[5mC]*e[5mC]*eA*e[5mC]*dT*d[5mC]*dT*d[5mC]*d[5mC]*dA*dT*dG*d[5mC]*dT*eT*eT*eG*e[5mC]*eA) [compound 546380] | 81%
547511 (antisense eG*eA*eT*eG*eA*dG*dG*dA*d[5mC]*d[5mC]*d[5mC]*d[5mC]*d[5mC]*d[5mC]*dA*eG*eG*e[5mC]*eT*e[5mC]) [compound 547511] | 53%
546368 (antisense eG*eG*eT*eT*eG*dT*dA*dA*dA*dA*dA*dT*dT*dG*d[5mC]*e[5mC]*eT*eA*eG*eA) [compound 546368] | 44%

Same assay, conditions: HepaRG cells, electroporation, 5,000 nM antisense oligonucleotide, approx. 24 hours, primer probe set RTS3454, relative to untreated control cells; Table 12

Substance | % inhibition
547530 (antisense eA*e[5mC]*eA*eA*e[5mC]*dA*d[5mC]*dA*d[5mC]*dA*dG*dT*d[5mC]*dA*dT*eG*eG*eA*eG*eA) [compound 547530] | 63%
546496 (eA*eT*eG*e[5mC]*eA*dT*dA*d[5mC]*dT*d[5mC]*dG*d[5mC]*d[5mC]*dT*dT*eT*eG*eT*eG*eA; antisense) [compound 546496] | 54%
546411 (eA*eT*eA*eT*eT*dG*dA*d[5mC]*dT*dT*dT*dG*dG*dG*dT*eT*eT*e[5mC]*eT*eG; antisense) [compound 546411] | 56%

Same assay, conditions: Table 7; HepaRG cells, electroporation with 5,000 nM antisense oligonucleotide, approx. 24 hours; PKK mRNA by RT-PCR (RTS3454), relative to untreated control cells

Substance | % inhibition
547400 (eT*eG*eG*e[5mC]*eA*dG*dG*dG*dT*dT*d[5mC]*dA*dG*dG*dT*eA*eA*eA*eG*eT; antisense) [compound 547400] | 0%
546217 (antisense e[5mC]*eA*e[5mC]*eA*eA*dA*dA*dG*d[5mC]*dA*dT*d[5mC]*dT*dG*dG*eA*eG*eT*eG*eA) [compound 546217] | 83%
546249 (e[5mC]*eT*eT*e[5mC]*eT*d[5mC]*d[5mC]*dT*d[5mC]*d[5mC]*dA*dA*dA*dG*dT*e[5mC]*eA*eA*e[5mC]*eT; antisense) [compound 546249] | 68%
546222 (antisense eG*eG*eG*eT*eG*dA*dT*dA*dG*dG*dT*dG*d[5mC]*dA*dG*eA*eT*eG*eG*eT) [compound 546222] | 12%

Same assay, conditions: Table 8; HepaRG cells, electroporation with 5,000 nM antisense oligonucleotide, approx. 24 hours; PKK mRNA by RT-PCR (RTS3454), relative to untreated control cells

Substance | % inhibition
546265 (eG*eT*e[5mC]*eT*eT*d[5mC]*dT*dG*dG*dG*dA*dG*dT*dA*dA*eA*eG*eA*eA*eT; antisense) [compound 546265] | 65%
546280 (e[5mC]*e[5mC]*eA*eG*eA*dG*d[5mC]*dT*d[5mC]*d[5mC]*d[5mC]*dT*dT*dG*dT*eG*eT*e[5mC]*e[5mC]*e[5mC]; antisense) [compound 546280] | 86%
546275 (eG*eA*eA*e[5mC]*e[5mC]*dA*dT*d[5mC]*d[5mC]*dA*dT*dA*dG*dA*dT*eA*eA*eT*e[5mC]*eT; antisense) [compound 546275] | 87%

Same assay, conditions: Table 9 experiment; HepaRG cells, 20,000 cells per well, electroporation with 5,000 nM antisense oligonucleotide, approx. 24 hours; PKK mRNA by RT-PCR (RTS3454), relative to untreated control cells

Substance | % inhibition
546317 (antisense eA*eG*eG*eA*eG*d[5mC]*d[5mC]*dT*dG*dG*dA*dG*dT*dT*dT*eT*eA*eT*e[5mC]*eA) [compound 546317] | 12%
546350 (antisense e[5mC]*e[5mC]*e[5mC]*eT*eG*d[5mC]*dG*dG*dG*d[5mC]*dA*d[5mC]*dA*dG*d[5mC]*e[5mC]*eT*eT*e[5mC]*eA) [compound 546350] | 88%
547466 (antisense eG*eT*eA*eT*eA*dA*dA*dT*dT*dG*dT*dG*d[5mC]*dT*dT*eG*eT*eG*eT*e[5mC]) [compound 547466] | 82%

Same assay, conditions: Table 10 experiment; HepaRG cells, 20,000 cells per well, electroporation with 5,000 nM antisense oligonucleotide, approx. 24 hours; PKK mRNA by RT-PCR (RTS3454), relative to untreated control cells

Substance | % inhibition
546317 (antisense eA*eG*eG*eA*eG*d[5mC]*d[5mC]*dT*dG*dG*dA*dG*dT*dT*dT*eT*eA*eT*e[5mC]*eA) [compound 546317] | 31%
546350 (antisense e[5mC]*e[5mC]*e[5mC]*eT*eG*d[5mC]*dG*dG*dG*d[5mC]*dA*d[5mC]*dA*dG*d[5mC]*e[5mC]*eT*eT*e[5mC]*eA) [compound 546350] | 74%
547466 (antisense eG*eT*eA*eT*eA*dA*dA*dT*dT*dG*dT*dG*d[5mC]*dT*dT*eG*eT*eG*eT*e[5mC]) [compound 547466] | 43%

Same assay, conditions: Table 13; human PKK mRNA in HepaRG cells; 5-10-5 gapmers

Substance | % inhibition
546843 (eT*eA*eT*e[5mC]*eA*d[5mC]*dT*dG*dT*d[5mC]*d[5mC]*dT*dA*dT*dA*eA*e[5mC]*eT*e[5mC]*eT; antisense) [compound 546843] | 52%

Same assay, conditions: human PKK mRNA in HepaRG cells; 5-10-5 gapmers; Table 14

Substance | % inhibition
546863 (eT*eA*eA*e[5mC]*eT*dA*dT*dA*dA*d[5mC]*dA*dA*dT*dA*dT*e[5mC]*eA*e[5mC]*eT*eG; antisense) [compound 546863] | 21%
546869 (eT*eG*eT*eA*e[5mC]*d[5mC]*dT*dA*dT*dA*dA*d[5mC]*dT*d[5mC]*dT*eA*eA*e[5mC]*eA*eG; antisense) [compound 546869] | 53%

Same assay, conditions: human PKK mRNA, HepaRG cells, 5,000 nM antisense oligonucleotide, Table 18

Substance | % inhibition
548771 (antisense eA*eT*eA*eA*d[5mC]*dA*dG*dT*dA*dT*d[5mC]*dA*d[5mC]*eT*eG*eT*e[5mC]) [compound 548771] | 62%
548729 (DNA eG*eT*eA*e[5mC]*dT*dA*dG*dT*dT*dT*d[5mC]*d[5mC]*dT*dA*eT*eA*eA; antisense) [compound 548729] | 13%
548749 (antisense eT*eG*eT*eA*d[5mC]*dT*dA*dG*dT*dT*dT*d[5mC]*d[5mC]*dT*eA*eT*eA*eA) [compound 548749] | 0%
548746 (antisense eT*eA*eT*e[5mC]*dA*d[5mC]*dT*dG*dT*dA*d[5mC]*dT*dA*eG*eT*eT*eT) [compound 548746] | 40%

Same assay, conditions: human PKK mRNA, HepaRG cells; 5-10-5 motif oligonucleotides targeting SEQ ID NO: 1 and 10

Substance | % inhibition
547670 (eT*eA*e[5mC]*eA*eA*d[5mC]*dT*dA*dT*dA*dA*d[5mC]*dA*dG*dT*eA*eT*e[5mC]*eA*e[5mC]; antisense) [compound 547670] | 0%
547650 (eG*eT*eA*e[5mC]*e[5mC]*dT*dA*dT*dA*dA*d[5mC]*dA*dG*dT*dA*eT*e[5mC]*eA*e[5mC]*eT; antisense) [compound 547650] | 32%
547664 (eG*eT*eA*e[5mC]*e[5mC]*dT*dA*dT*dA*dA*d[5mC]*dT*dA*dT*dA*eA*e[5mC]*eA*eG*eT; antisense) [compound 547664] | 2%
546905 (eT*eA*e[5mC]*e[5mC]*eT*dA*dT*dA*dA*d[5mC]*dA*dG*dT*dA*dT*e[5mC]*eA*e[5mC]*eT*eG; antisense) [compound 546905] | 65%
547645 (eA*eT*eA*eT*e[5mC]*dA*d[5mC]*dT*dG*dT*d[5mC]*d[5mC]*dT*dA*dT*eA*eA*e[5mC]*eT*eA; antisense) [compound 547645] | 60%
547628 (antisense e[5mC]*eT*e[5mC]*eT*eA*d[5mC]*d[5mC]*dT*dA*dT*dA*dA*d[5mC]*dT*d[5mC]*eT*eA*eA*e[5mC]*eA) [compound 547628] | 34%
